Experimental data reported in patent publication US8192962B2, “Processes for detecting toxic substances” (Daikin Industries, Ltd., priority 2001, dated 2012).

System: Unknown protein yeast genes
Assay: DNA chip mRNA expression in yeast, unknown protein yeast genes (Table 1)
Type: cell-based, Saccharomyces cerevisiae S288C
Outline: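 Chemical exposure: 2 h, log-phase S. cerevisiae S288C, YPD, 25° C., dose set to inhibit growth without death. Profiling: mRNA labeled by reverse transcription with Cy3- or Cy5-dUTP, hybridized to whole-genome array. Output: fluorescence ratio against untreated culture.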

## S=C([S-])NCCNC(=S)[S-].[Zn+2] [(11), zinc N,N′-ethylenebis(dithiocarbamate)]
Yeast gene YKL153W, incubated two hours with chemical substance
  The level of expressed mRNA in the presence of chemical substance/The level of expressed mRNA in the absence of chemical substance: 2.1
Yeast gene YKL195W, incubated two hours with chemical substance
  The level of expressed mRNA in the presence of chemical substance/The level of expressed mRNA in the absence of chemical substance: 1.0
Yeast gene YKR033C
  The level of expressed mRNA in the presence of chemical substance/The level of expressed mRNA in the absence of chemical substance: 0.3
Yeast gene YKR091W, incubated two hours with chemical substance
  The level of expressed mRNA in the presence of chemical substance/The level of expressed mRNA in the absence of chemical substance: 1.1
Yeast gene YLR054C, incubated two hours with chemical substance
  The level of expressed mRNA in the presence of chemical substance/The level of expressed mRNA in the absence of chemical substance: 0.7
Yeast gene YLR149C, incubated two hours with chemical substance
  The level of expressed mRNA in the presence of chemical substance/The level of expressed mRNA in the absence of chemical substance: 2.8
Yeast gene YLR152C, incubated two hours with chemical substance
  The level of expressed mRNA in the presence of chemical substance/The level of expressed mRNA in the absence of chemical substance: 3.6
Yeast gene YLR194C, incubated two hours with chemical substance
  The level of expressed mRNA in the presence of chemical substance/The level of expressed mRNA in the absence of chemical substance: 1.4
Yeast gene YLR324W, incubated two hours with chemical substance
  The level of expressed mRNA in the presence of chemical substance/The level of expressed mRNA in the absence of chemical substance: 0.9
Yeast gene YLR350W, incubated two hours with chemical substance
  The level of expressed mRNA in the presence of chemical substance/The level of expressed mRNA in the absence of chemical substance: 0.9
Yeast gene YLR387C, incubated two hours with chemical substance
  The level of expressed mRNA in the presence of chemical substance/The level of expressed mRNA in the absence of chemical substance: 0.9
Yeast gene YLR460C
  The level of expressed mRNA in the presence of chemical substance/The level of expressed mRNA in the absence of chemical substance: 14.3
Yeast gene YML117W, incubated two hours with chemical substance
  The level of expressed mRNA in the presence of chemical substance/The level of expressed mRNA in the absence of chemical substance: 0.8
Yeast gene YMR009W, incubated two hours with chemical substance
  The level of expressed mRNA in the presence of chemical substance/The level of expressed mRNA in the absence of chemical substance: 2.1
Yeast gene YMR067C, incubated two hours with chemical substance
  The level of expressed mRNA in the presence of chemical substance/The level of expressed mRNA in the absence of chemical substance: 1.1
Yeast gene YMR090W
  The level of expressed mRNA in the presence of chemical substance/The level of expressed mRNA in the absence of chemical substance: 8.8
Yeast gene YMR095C, incubated two hours with chemical substance
  The level of expressed mRNA in the presence of chemical substance/The level of expressed mRNA in the absence of chemical substance: 2.1
Yeast gene YMR097C, incubated two hours with chemical substance
  The level of expressed mRNA in the presence of chemical substance/The level of expressed mRNA in the absence of chemical substance: 1.5
Yeast gene YMR102C, incubated two hours with chemical substance
  The level of expressed mRNA in the presence of chemical substance/The level of expressed mRNA in the absence of chemical substance: 1.5
Yeast gene YMR107W, incubated two hours with chemical substance
  The level of expressed mRNA in the presence of chemical substance/The level of expressed mRNA in the absence of chemical substance: 3.0
Yeast gene YMR180C, incubated two hours with chemical substance
  The level of expressed mRNA in the presence of chemical substance/The level of expressed mRNA in the absence of chemical substance: 0.7
Yeast gene YMR184W, incubated two hours with chemical substance
  The level of expressed mRNA in the presence of chemical substance/The level of expressed mRNA in the absence of chemical substance: 1.5
Yeast gene YMR191W, incubated two hours with chemical substance
  The level of expressed mRNA in the presence of chemical substance/The level of expressed mRNA in the absence of chemical substance: 2.3
Yeast gene YMR295C, incubated two hours with chemical substance
  The level of expressed mRNA in the presence of chemical substance/The level of expressed mRNA in the absence of chemical substance: 1.2
Yeast gene YMR316W, incubated two hours with chemical substance
  The level of expressed mRNA in the presence of chemical substance/The level of expressed mRNA in the absence of chemical substance: 1.5
Yeast gene YNL044W, incubated two hours with chemical substance
  The level of expressed mRNA in the presence of chemical substance/The level of expressed mRNA in the absence of chemical substance: 1.1
Yeast gene YNL074C, incubated two hours with chemical substance
  The level of expressed mRNA in the presence of chemical substance/The level of expressed mRNA in the absence of chemical substance: 1.3
Yeast gene YNL092W, incubated two hours with chemical substance
  The level of expressed mRNA in the presence of chemical substance/The level of expressed mRNA in the absence of chemical substance: 0.7
Yeast gene YNL115C, incubated two hours with chemical substance
  The level of expressed mRNA in the presence of chemical substance/The level of expressed mRNA in the absence of chemical substance: 1.1
Yeast gene YNL156C, incubated two hours with chemical substance
  The level of expressed mRNA in the presence of chemical substance/The level of expressed mRNA in the absence of chemical substance: 1.4
Yeast gene YNL234W, incubated two hours with chemical substance
  The level of expressed mRNA in the presence of chemical substance/The level of expressed mRNA in the absence of chemical substance: 1.3
Yeast gene YNL281W, incubated two hours with chemical substance
  The level of expressed mRNA in the presence of chemical substance/The level of expressed mRNA in the absence of chemical substance: 1.6
Yeast gene YNL305C, incubated two hours with chemical substance
  The level of expressed mRNA in the presence of chemical substance/The level of expressed mRNA in the absence of chemical substance: 1.8
Yeast gene YNR068C, incubated two hours with chemical substance
  The level of expressed mRNA in the presence of chemical substance/The level of expressed mRNA in the absence of chemical substance: 1.1
Yeast gene YOL032W, incubated two hours with chemical substance
  The level of expressed mRNA in the presence of chemical substance/The level of expressed mRNA in the absence of chemical substance: 1.4
Yeast gene YOL036W, incubated two hours with chemical substance
  The level of expressed mRNA in the presence of chemical substance/The level of expressed mRNA in the absence of chemical substance: 2.2
Yeast gene YOL047C, incubated two hours with chemical substance
  The level of expressed mRNA in the presence of chemical substance/The level of expressed mRNA in the absence of chemical substance: 0.9
Yeast gene YOL071W, incubated two hours with chemical substance
  The level of expressed mRNA in the presence of chemical substance/The level of expressed mRNA in the absence of chemical substance: 4.3
Yeast gene YOL082W, incubated two hours with chemical substance
  The level of expressed mRNA in the presence of chemical substance/The level of expressed mRNA in the absence of chemical substance: 1.6
Yeast gene YOL083W, incubated two hours with chemical substance
  The level of expressed mRNA in the presence of chemical substance/The level of expressed mRNA in the absence of chemical substance: 1.3
Yeast gene YOL117W, incubated two hours with chemical substance
  The level of expressed mRNA in the presence of chemical substance/The level of expressed mRNA in the absence of chemical substance: 1.0
Yeast gene YOL131W, incubated two hours with chemical substance
  The level of expressed mRNA in the presence of chemical substance/The level of expressed mRNA in the absence of chemical substance: 1.4
Yeast gene YOL150C
  The level of expressed mRNA in the presence of chemical substance/The level of expressed mRNA in the absence of chemical substance: 9.4
Yeast gene YOL162W, incubated two hours with chemical substance
  The level of expressed mRNA in the presence of chemical substance/The level of expressed mRNA in the absence of chemical substance: 4.3
Yeast gene YOR019W, incubated two hours with chemical substance
  The level of expressed mRNA in the presence of chemical substance/The level of expressed mRNA in the absence of chemical substance: 1.7
Yeast gene YOR197W, incubated two hours with chemical substance
  The level of expressed mRNA in the presence of chemical substance/The level of expressed mRNA in the absence of chemical substance: 1.0
Yeast gene YPL087W, incubated two hours with chemical substance
  The level of expressed mRNA in the presence of chemical substance/The level of expressed mRNA in the absence of chemical substance: 2.5
Yeast gene YPL196W, incubated two hours with chemical substance
  The level of expressed mRNA in the presence of chemical substance/The level of expressed mRNA in the absence of chemical substance: 1.7
Yeast gene YPL206C, incubated two hours with chemical substance
  The level of expressed mRNA in the presence of chemical substance/The level of expressed mRNA in the absence of chemical substance: 1.5
Yeast gene YPL222W, incubated two hours with chemical substance
  The level of expressed mRNA in the presence of chemical substance/The level of expressed mRNA in the absence of chemical substance: 1.2
Yeast gene YPR023C, incubated two hours with chemical substance
  The level of expressed mRNA in the presence of chemical substance/The level of expressed mRNA in the absence of chemical substance: 1.7
Yeast gene YPR151C, incubated two hours with chemical substance
  The level of expressed mRNA in the presence of chemical substance/The level of expressed mRNA in the absence of chemical substance: 1.4
